Data: patent publication US20220144847A1, “HETEROCYCLIC COMPOUND, PHARMACEUTICAL COMPOSITION COMPRISING SAME, PREPARATION METHOD THEREFOR, AND USE THEREOF” (Sichuan Kelun-Biotech Biopharmaceutical Co., Ltd., priority 2019, published 2022)
Where two headings read alike, the source gives them in different places. One block for each compound: values may come before it.

Assays:
RET-V804M = RET-V804M (Homo sapiens, UniProt P07949, V804M); test: RET inhibition experiment (HTRF KinEASE-TK kit), mutant RET-V804M; format: biochemical; conditions: for inhibition at 0.1 µM / inhibition at 0.01 µM: read-out: Inhibition rate on RET-V804M; for inhibition at 0.01 µM: 10 nM (Table 2); for IC50: read-out: The IC50 (nM) for inhibiting V804M
Method in brief: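 Enzyme was pre-incubated with compound at room temperature for 30 min, then substrate and ATP were added for a 40 min reaction. HTRF signal was read after 45 min with TK antibody-cryptate and streptavidin-XL665. IC50 came from a four-parameter fit of percent inhibition against DMSO and no-enzyme controls.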

RET-M918T = RET-M918T (Homo sapiens, UniProt P07949, M918T); test: RET inhibition experiment (HTRF KinEASE-TK kit), mutant RET-M918T; format: biochemical; conditions: for inhibition at 0.1 µM: read-out: Inhibition rate on RET-M918T
Experimental: (§1) Experimental method: […] After incubation at room temperature for 40 min, TK antibody-cryptate and streptavidin-XL665 were added, and the test was performed after incubation at room temperature for 45 min. With the solvent group (DMSO) as the negative control and the buffer group (without RET enzyme) as the blank control, the relative inhibitory activity percentages (i.e., inhibition rates) of different concentrations of the compounds were computed as per the following formula: […] The relative inhibitory activity percentages of different concentrations of the compounds were plotted with respect to the compound concentrations, and the curve was fitted according to a four-parameter model to compute the IC50 value as per the following formula: y=min+(max-min)/(1+(x/IC50)^(-Hillslope)) where y is the relative inhibitory activity percentage, max is the maximum value of the fitted curve, min is the minimum value of the fitted curve, x is the logarithmic concentration of the compound, and Hillslope is the slope of the curve.

VEGFR2 = VEGFR2 (Homo sapiens, UniProt P35968); test: VEGFR2 inhibition experiment (HTRF KinEASE-TK kit); format: biochemical; conditions: read-out: Inhibition rate on VEGFR2; for inhibition at 0.3 µM: 300 nM
Method in brief: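 HTRF KinEASE-TK format: enzyme and compound were preincubated 30 min at room temperature, then substrate and ATP added for 40 min, followed by cryptate antibody/streptavidin-XL665 detection for 45 min. Inhibition was normalised to DMSO and no-enzyme controls; IC50 from a four-parameter fit.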

RET-CCDC6 = target: T1, RET-CCDC6 (Homo sapiens, UniProt P07949); test: RET inhibition experiment (HTRF KinEASE-TK kit), fusion-type RET enzyme; format: biochemical; conditions: read-out: The IC50 (nM) for inhibiting RET-CCDC6
T1 construct: CCDC6 fusion partner (Q16204 for human); the other entry of the earlier key: CCDC6 (Q16204, Coiled-coil domain-containing protein 6)
T1 sequence (P07949 with tags, fused parts or gaps): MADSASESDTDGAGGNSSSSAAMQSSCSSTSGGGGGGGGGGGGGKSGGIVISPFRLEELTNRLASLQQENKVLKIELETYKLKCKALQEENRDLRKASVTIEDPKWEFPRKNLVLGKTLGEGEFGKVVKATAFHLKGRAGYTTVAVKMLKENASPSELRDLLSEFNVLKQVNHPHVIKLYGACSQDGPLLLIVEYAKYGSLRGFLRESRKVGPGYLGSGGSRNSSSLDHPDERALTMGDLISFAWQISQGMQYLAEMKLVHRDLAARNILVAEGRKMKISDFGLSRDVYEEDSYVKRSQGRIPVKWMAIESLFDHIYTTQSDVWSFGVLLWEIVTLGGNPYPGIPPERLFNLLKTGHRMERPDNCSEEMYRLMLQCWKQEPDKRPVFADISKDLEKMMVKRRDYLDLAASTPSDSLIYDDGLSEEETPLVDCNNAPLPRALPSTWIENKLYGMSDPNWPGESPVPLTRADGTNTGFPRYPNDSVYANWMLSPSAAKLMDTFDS
Experimental: as §1

[1] = Pharmacokinetics and tissue distribution of compounds in rats; format: in vivo; conditions: male, SD, rat, PO 5 mg/kg; for AUC(0-t): read-out: AUC AUClast; for Cmax: read-out: Peak concentration Cmax; for Kp: read-out: T/P Ratio of AUClast in tissue to plasma; for Tmax: read-out: Time to peak concentration Tmax
Experimental: By intragastric administration (PO) of BLU-667 (prepared according to Example 5 of WO2017/079140A1) and Compound 17 to male SD rats respectively, the plasma concentrations and the tissue concentrations of BLU-667 and Compound 17 in brains, lungs and thyroid of rats were determined to investigate the pharmacokinetic characteristics. The dosage of administration by PO was 5 mg/kg, and the solvent was 0.5% MC (methylcellulose). With administration by PO, blood samples were collected at different time points (0 h before administration, and 0.25 h, 0.5 h, 1 h, 2 h, 4 h, 6 h, 8 h, and 24 h after administration). The blood samples were anticoagulated with dipotassium edetate, and centrifuged to provide plasma samples, which were stored at −80° C. Rats were sacrificed by exsanguination from abdominal aorta at 0.5 h, 2 h, 8 h, and 24 h after PO administration. Brain, lung and thyroid were collected, washed, and homogenized with normal saline at a certain ratio, to provide tissue samples which were stored at −80° C. The plasma samples and tissue samples were processed with precipitated protein and then analyzed by LC-MS/MS. The pharmacokinetic parameters were computed using WinNonlin 6.3 software and using a non-compartmental model.

[2] = tested on: human medullary thyroid carcinoma TT cells; test: Efficacy test in mice, subcutaneous xenograft tumor of TT cells; format: in vivo, Balb/c-nu mouse; conditions: 5 mg/kg, PO, BID; TT nude mouse xenograft
Experimental: Experimental purpose: To evaluate the in vivo efficacy of Compound 17 and BLU-667 in a Balb/c-nu mouse model with a subcutaneous xenograft tumor of human medullary thyroid carcinoma TT cells.
Drug preparation: Compound 17 was dissolved in 0.1 M aqueous solution of H3PO4, and BLU-667 was dissolved in 0.1 M aqueous solution of HOAc, to prepare clear solutions (pH: about 4.0). An aqueous solution of H3PO4 at a pH of about 4.0 was used for the solvent control group. The mode of administration was PO, BID.
Tumor measurement: The tumor diameter was measured with a vernier caliper twice a week. The computing formula of the tumor volume is: V=0.5×a×b^2, where a represents a long diameter of the tumor, and b represents a short diameter of the tumor. Evaluation of tumor growth inhibition rate (TGI (%)) for tumor inhibition efficacy of the compounds: TGI (%)=[(1-(mean tumor volume of a treatment group at the end of drug administration-mean tumor volume of the treatment group at the commencement of drug administration))/(mean tumor volume of a solvent control group at the end of treatment-mean tumor volume of the solvent control group at the commencement of treatment)]×100%.
Statistical analysis: Prism Graphpad5.0 software was used for statistical analysis based on the relative tumor volume at the end of the experiment. The comparison between multiple groups was analyzed by two-way ANOVA, and p<0.05 was considered as a significant difference.
Experimental results: In the TT nude mouse xenograft model of human medullary thyroid carcinoma, Compound 17 has a significant […] anti-tumor effect at a dose of 5 mg/kg. […] Relative tumor growth rate T/C (%)=TRTV/CRTV×100%, where TRTV is the mean relative tumor volume of the test compound group, CRTV is the relative tumor volume of the solvent control group; and the relative tumor volume RTV=Vt/V0, where V0 is the mean tumor volume at the commencement of the administration, and Vt is the mean tumor volume measured on day t after the administration.

[3] = compound concentration 100 nM (Table 1)

Sequence of RET-V804M (P07949 29-1114 V804M): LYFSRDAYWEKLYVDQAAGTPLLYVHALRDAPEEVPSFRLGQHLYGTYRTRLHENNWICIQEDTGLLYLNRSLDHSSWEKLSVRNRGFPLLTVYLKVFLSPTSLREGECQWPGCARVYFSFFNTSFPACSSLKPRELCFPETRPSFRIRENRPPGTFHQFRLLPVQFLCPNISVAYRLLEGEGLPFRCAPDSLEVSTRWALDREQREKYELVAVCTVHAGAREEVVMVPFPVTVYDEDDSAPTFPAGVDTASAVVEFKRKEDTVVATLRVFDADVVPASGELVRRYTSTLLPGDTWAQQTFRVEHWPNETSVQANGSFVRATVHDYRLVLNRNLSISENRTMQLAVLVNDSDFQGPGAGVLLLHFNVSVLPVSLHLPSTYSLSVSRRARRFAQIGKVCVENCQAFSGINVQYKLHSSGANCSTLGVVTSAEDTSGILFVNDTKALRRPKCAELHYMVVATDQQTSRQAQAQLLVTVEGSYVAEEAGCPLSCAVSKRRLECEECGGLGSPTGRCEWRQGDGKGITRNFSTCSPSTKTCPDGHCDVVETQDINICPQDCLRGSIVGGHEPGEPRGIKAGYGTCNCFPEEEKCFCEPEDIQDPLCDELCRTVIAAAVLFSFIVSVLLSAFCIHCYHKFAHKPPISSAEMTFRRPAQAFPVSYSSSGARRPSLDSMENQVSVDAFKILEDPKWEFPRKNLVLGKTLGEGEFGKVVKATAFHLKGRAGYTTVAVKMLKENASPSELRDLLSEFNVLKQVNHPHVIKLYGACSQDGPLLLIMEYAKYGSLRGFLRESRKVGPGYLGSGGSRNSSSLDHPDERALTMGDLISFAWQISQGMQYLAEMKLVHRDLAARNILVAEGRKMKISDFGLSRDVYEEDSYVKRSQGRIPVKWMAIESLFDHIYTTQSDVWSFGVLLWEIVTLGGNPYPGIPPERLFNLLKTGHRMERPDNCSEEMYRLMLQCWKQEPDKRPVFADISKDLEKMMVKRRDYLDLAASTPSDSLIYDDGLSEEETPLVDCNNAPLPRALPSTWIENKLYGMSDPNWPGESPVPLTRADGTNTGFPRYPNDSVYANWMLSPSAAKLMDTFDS
Sequence of RET-M918T (P07949 29-1114 M918T): as the sequence (P07949 29-1114 V804M) above, with M776V, M890T counted along it
Sequence of VEGFR2 (P35968 20-1356, species assumed): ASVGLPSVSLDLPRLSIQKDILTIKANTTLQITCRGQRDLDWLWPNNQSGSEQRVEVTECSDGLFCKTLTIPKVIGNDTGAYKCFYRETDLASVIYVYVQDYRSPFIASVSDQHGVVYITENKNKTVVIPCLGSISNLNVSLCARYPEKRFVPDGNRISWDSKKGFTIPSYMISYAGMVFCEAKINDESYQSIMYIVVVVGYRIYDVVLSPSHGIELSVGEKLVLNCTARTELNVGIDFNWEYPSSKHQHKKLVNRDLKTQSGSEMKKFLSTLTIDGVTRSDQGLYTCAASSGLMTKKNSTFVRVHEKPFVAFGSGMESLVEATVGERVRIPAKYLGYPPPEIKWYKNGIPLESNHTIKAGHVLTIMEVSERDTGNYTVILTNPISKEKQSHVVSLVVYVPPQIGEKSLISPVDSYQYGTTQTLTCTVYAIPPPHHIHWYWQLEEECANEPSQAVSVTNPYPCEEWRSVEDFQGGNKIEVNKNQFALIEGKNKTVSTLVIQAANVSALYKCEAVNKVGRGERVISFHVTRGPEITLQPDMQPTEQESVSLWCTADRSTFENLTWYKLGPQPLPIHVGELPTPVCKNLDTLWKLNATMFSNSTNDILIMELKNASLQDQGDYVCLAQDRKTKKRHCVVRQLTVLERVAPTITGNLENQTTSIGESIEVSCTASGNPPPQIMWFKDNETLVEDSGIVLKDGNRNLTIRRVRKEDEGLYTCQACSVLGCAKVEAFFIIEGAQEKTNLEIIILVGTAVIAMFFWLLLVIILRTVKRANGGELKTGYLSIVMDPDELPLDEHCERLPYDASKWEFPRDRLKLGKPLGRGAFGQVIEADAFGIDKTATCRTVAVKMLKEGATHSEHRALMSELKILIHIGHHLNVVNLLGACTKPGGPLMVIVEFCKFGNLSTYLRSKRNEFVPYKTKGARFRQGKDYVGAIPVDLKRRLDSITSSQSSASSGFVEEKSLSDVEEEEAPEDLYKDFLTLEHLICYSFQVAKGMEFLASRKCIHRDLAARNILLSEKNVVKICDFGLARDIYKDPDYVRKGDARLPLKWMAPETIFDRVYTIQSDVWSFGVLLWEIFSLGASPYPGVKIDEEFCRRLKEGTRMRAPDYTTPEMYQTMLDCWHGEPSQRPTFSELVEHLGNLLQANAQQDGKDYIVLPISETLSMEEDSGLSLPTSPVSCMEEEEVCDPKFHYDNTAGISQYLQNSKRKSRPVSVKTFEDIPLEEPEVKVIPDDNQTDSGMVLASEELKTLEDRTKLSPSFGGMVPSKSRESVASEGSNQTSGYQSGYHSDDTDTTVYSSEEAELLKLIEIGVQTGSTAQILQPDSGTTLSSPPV

SMILES: Cc1cc(Nc2cc(C)[nH]n2)nc(-c2ccc(N3CC4CC(C3)N4Cc3ccccc3)nc2)n1 [Compound 1, 2-(6-(6-benzyl-3,6-diazabicyclo[3.1.1]heptan-3-yl)pyridin-3-yl)-6-methyl-N-(5-methyl-1H-pyrazol-3-yl)pyrimidin-4-amine]
inhibition at 0.1 µM (RET-V804M): 86%
inhibition at 0.1 µM (RET-M918T): 33%
inhibition at 0.1 µM (VEGFR2): 38%

SMILES: Cc1cc(Nc2cc(C)[nH]n2)nc(-c2ccc(N3CC4CC(C3)N4Cc3ccc(Cl)cn3)nc2)n1 [Compound 69, 2-(6-(6-((5-chloropyridin-2-yl)methyl)-3,6-diazabicyclo[3.1.1]heptan-3-yl)pyridin-3-yl)-6-methyl-N-(5-methyl-1H-pyrazol-3-yl)pyrimidin-4-amine]
inhibition at 0.01 µM (RET-V804M): 56%
IC50 (RET-M918T; read-out: The IC50 (nM) for inhibiting the enzyme RET-M918T): 8.6 ± 1.46 nM
IC50 (RET-CCDC6): 11 ± 9.65 nM
inhibition at 0.1 µM (VEGFR2; 100 nM): 2%

SMILES: Cc1cc(Nc2cc(C)[nH]n2)nc(-c2ccc(N3CC4CC(C3)N4Cc3ccc(Cl)nc3)nc2)n1 [Compound 3, 2-(6-(6-((6-chloropyridin-3-yl)methyl)-3,6-diazabicyclo[3.1.1]heptan-3-yl)pyridin-3-yl)-6-methyl-N-(5-methyl-1H-pyrazol-3-yl)pyrimidin-4-amine]
inhibition at 0.1 µM (RET-V804M; [3]): 86%
inhibition at 0.1 µM (RET-M918T; [3]): 34%
inhibition at 0.1 µM (VEGFR2; 100 nM): 14%

SMILES: COc1ccc(CN2C3CC2CN(c2ccc(-c4nc(C)cc(Nc5cc(C)[nH]n5)n4)cn2)C3)cc1 [Compound 2, 2-(6-(6-(4-methoxybenzyl)-3,6-diazabicyclo[3.1.1]heptan-3-yl)pyridin-3-yl)-6-methyl-N-(5-methyl-1H-pyrazol-3-yl)pyrimidin-4-amine]
inhibition at 0.1 µM (RET-V804M): 93%
inhibition at 0.1 µM (RET-M918T): 51%
inhibition at 0.1 µM (VEGFR2): 29%

SMILES: COc1ccc(CN2C3CC2CN(c2ccc(-c4nc(C)cc(Nc5cc(C)[nH]n5)n4)cn2)C3)cn1 [Compound 4, 2-(6-(6-((6-methoxypyridin-3-yl)methyl)-3,6-diazabicyclo[3.1.1]heptan-3-yl)pyridin-3-yl)-6-methyl-N-(5-methyl-1H-pyrazol-3-yl)pyrimidin-4-amine]
inhibition at 0.1 µM (RET-M918T; [3]): 69%
inhibition at 1 µM (VEGFR2; 1000 nM): 52%

SMILES: Cc1cc(Nc2cc(C)[nH]n2)nc(-c2ccc(N3CC4CC(C3)N4C(=O)c3ccc(-n4cc(F)cn4)nc3)nc2)n1 [Compound 26, (6-(4-fluoro-1H-pyrazol-1-yl)pyridin-3-yl)(3-(5-(4-methyl-6-((5-methyl-1H-pyrazol-3-yl)-amino)pyrimidin-2-yl)pyridin-2-yl)-3,6-diazabicyclo[3.1.1]heptan-6-yl)methanone]
inhibition at 0.01 µM (RET-V804M): 83%
inhibition at 0.3 µM (VEGFR2): 64%

SMILES: Cc1cc(Nc2cc(C)[nH]n2)nc(-c2ccc(N3CC4CC(C3)N4Cc3ccc(-n4cc(C)c(C)n4)nc3)nc2)n1 [Compound 121, 2-(6-(6-((6-(3,4-dimethyl-1H-pyrazol-1-yl)pyridin-3-yl)methyl)-3,6-diazabicyclo[3.1.1]heptan-3-yl)pyridin-3-yl)-6-methyl-N-(5-methyl-1H-pyrazol-3-yl)pyrimidin-4-amine]
IC50 (RET-V804M): 6.22 ± 1.39 nM
inhibition at 0.1 µM (VEGFR2; 100 nM): 37%

SMILES: Cc1cc(Nc2cc(C)[nH]n2)nc(-c2ccc(N3C[C@H]4C[C@@H](C3)N4C(C)c3ccc(-n4cc(F)cn4)nc3)nc2)n1 (single isomer, unassigned) [Compound 52-2]
IC50 (RET-V804M): 13 ± 2.34 nM
inhibition at 0.3 µM (VEGFR2): 12%

AUC(0-t) ([1]; brain): 157 ng·h/mL
Cmax ([1]; brain): 30.8 ng/mL
Kp ([1]; brain): 0.018
Tmax ([1]; brain): 30 min
AUC(0-t) ([1]; lung): 25100 ng·h/mL
Cmax ([1]; lung): 3570 ng/mL
Kp ([1]; lung): 2.9
Tmax ([1]; lung): 30 min
AUC(0-t) ([1]; plasma): 8650 ng·h/mL
Cmax ([1]; plasma): 1490 ng/mL
Kp ([1]; plasma): 1
Tmax ([1]; plasma): 60 min
AUC(0-t) ([1]; thyroid): 6350 ng·h/mL
Cmax ([1]; thyroid): 888 ng/mL
Kp ([1]; thyroid): 0.73
Tmax ([1]; thyroid): 30 min
SMILES: CO[C@]1(C(=O)N[C@@H](C)c2ccc(-n3cc(F)cn3)nc2)CC[C@H](c2nc(C)cc(Nc3cc(C)[nH]n3)n2)CC1 [BLU-667, reference compound]
Relative tumor growth rate T/C [2]: 33.62%
Tumor growth inhibition rate TGI [2]: 88.82%
